According to US20240191303A1, “METHODS FOR OPTIMIZING THE TREATMENT OF COLORECTAL CANCER” (Brown University, priority 2021, published 2024):
Entries after “also recorded” stand apart in the source; their conditions may differ. Read-outs that look alike come from different tables or passages of the source.

Legend:
[1] = system: HCT116 and HCT116 p53−/− cells; experiment: Clariom D microarrays, RNA expression relative to untreated cells; assay type: cell-based, human; conditions: IC50 dose, 8 h; for BTG2 induction, rank in p53-dependent gene signature: fold change>2
Description: Microarrays. Total cellular RNA was isolated, and Clariom™ D microarrays were used to measure changes in RNA expression relative to untreated cells. A total of 7×10^5 HCT116 and HCT116 p53^−/− cells were plated in a 6-well plate and incubated for twelve-sixteen hours before being treated with 5-fluorouracil, CPT-11, oxaliplatin, or cisplatin at their respective IC50 doses for eight hours. Cell pellets were collected and split into two tubes, one for western blot analysis and one for RNA extraction. Samples were randomized, and RNA was isolated (Qiagen 74134) in five batches to ensure a high-quality RNA product. Acceptable RNA concentration and quality were verified with Nanodrop and Bioanalyzer measurements. Clariom D Microarrays (ThermoFisher 902923) were conducted according to the manufacturer's protocol in two batches on randomized samples to limit batch effects.
Statistical analysis. TAC software was used to calculate fold changes and statistical significance. Microarrays Applied Biosystems Transcriptomic Analysis Console (TAC) software was used to calculate fold-changes in gene expression relative to the untreated control cells. p-values<0.05 were considered significant.
To define a pan-drug signature and to evaluate heterogeneity in the p53 response on a whole-transcriptome scale, the inventors treated HCT116 and HCT116 p53^−/− cells with each of the four drugs at their IC50 for eight hours. The RNA expression relative to an untreated control was measured using microarray analysis. Upregulation of p53 in these samples and equal induction of cell death at this dose and time point was validated by Western blot and CellTiterGlo, respectively, before microarray analysis. […] Each internal control had tightly clustered triplicates. Quality control measurements were also determined to be satisfactory for further analysis.

[2] = system: HCT116 and HCT116 p53−/− cells; experiment: Cytokine profiling of cell supernatants (Luminex 200), p53 status not separated; assay type: cell-based, human; conditions: for VEGF production/release: both HCT116 and HCT116 p53−/−
Description: A total of 4×10^4 HCT116 or HCT116 p53^−/− cells were plated per well of a 24-well plate and incubated twelve-sixteen hours before treatment with 55-fluorouracil, CPT-11, oxaliplatin, cisplatin, or various combination treatments at the appropriate IC50 (combination treatments received each drug at their IC50). Cell supernatants were collected at forty-eight hours after treatment and stored at −20° C. Samples were prepared and run in triplicate on a Luminex 200 Instrument (R&D LX200-XPON-RUO). Sample preparation was conducted, and instrument settings were selected based on the Human Magnetix Luminex Assay (R&D LXSAHM) protocol.

HCT116 p53−/− cells = experiment: Cytokine profiling of cell supernatants (Luminex 200), p53−/− cells; assay type: cell-based, human; conditions: IC50, 48 h
Description: (§1) Cytokine profiling. A total of 4×10^4 HCT116 or HCT116 p53^−/− cells were plated per well of a 24-well plate and incubated twelve-sixteen hours before treatment with […], CPT-11, oxaliplatin, cisplatin, or various combination treatments at the appropriate IC50 (combination treatments received each drug at their IC50). Cell supernatants were collected at forty-eight hours after treatment and stored at −20° C. Samples were prepared and run in triplicate on a Luminex 200 Instrument (R&D LX200-XPON-RUO). Sample preparation was conducted, and instrument settings were selected based on the Human Magnetix Luminex Assay (R&D LXSAHM) protocol.
(§2) Cytokine profiling. Results were analyzed in GraphPad prism, and statistical significance across drugs was determined separately for wild-type and ^−/− cells with a one-way ANOVA. p-values<0.05 were considered significant.
(§3) HCT116 and HCT116 p53^−/− cells were treated with the four drugs (5-FU, CPT-11, oxaliplatin, and cisplatin) at their IC50s and combination treatment groups received two-three drugs, each at their individual IC50 concentration.

[3] = oxaliplatin-treated mice; cited from earlier work
[4] = cited from earlier work
HCT116 cells (wild-type) = experiment: Cytokine profiling of cell supernatants (Luminex 200), wild-type cells; assay type: cell-based, human; conditions: IC50, 48 h
Description: as §1, §2, §3

[5] = drug at IC50, 48 h, HCT116 vs HCT116 p53−/−
[6] = drug(s) each at IC50, 48 h, vs control

## O=c1[nH]cc(F)c(=O)[nH]1 [5-fluorouracil, 5-Fluorouracil]
[1]
  BAX transcript regulation: slight preferential upregulation; also recorded: preferentially upregulated
  histone gene regulation: strikingly unique down-regulation; also recorded: uniquely down-regulated
  transcripts of the 5-fluorouracil/CPT-11/oxaliplatin-specific signature (e.g., SERPINE1, CEACAM1, C1orf116): upregulated
  BTG2 induction, rank in p53-dependent gene signature: top upregulated gene; also recorded: most highly induced gene
[2]; [5]
  p53 dependence of TRAILR2 regulation: p53-independent
[2]; drug at IC50, 48 h
  VEGF production/release: downregulated
[2]; drug at IC50, 48 h, vs control
  TRAILR2 level in cell supernatant: down-regulated

## CCc1c2c(nc3ccc(OC(=O)N4CCC(N5CCCCC5)CC4)cc13)-c1cc3c(c(=O)n1C2)COC(=O)[C@]3(O)CC [CPT-11, Irinotecan]
[1]
  DRAM1 transcript regulation: p53-dependent, CPT-11-specific regulation
  FDXR transcript regulation: p53-dependent, CPT-11-specific regulation
  TLR3 transcript regulation: p53-dependent, CPT-11-specific regulation
  transcripts of the 5-fluorouracil/CPT-11/oxaliplatin-specific signature (e.g., SERPINE1, CEACAM1, C1orf116): upregulated
  BTG2 induction, rank in p53-dependent gene signature: second most highly induced gene
[2]; drug at IC50, 48 h
  VEGF production/release: downregulated
[2]; drug at IC50, 48 h, vs control
  TRAILR2 level in cell supernatant: not affected
[2]; [6]
  IL-8 level in cell supernatant: moderate increase

## N.N.[Cl][Pt][Cl] [cisplatin]
[1]
  PITPNC1 transcript regulation: downregulation
  PRPF39 transcript regulation: upregulation
  ROR1 transcript regulation: downregulation
  transcripts of the 5-fluorouracil/CPT-11/oxaliplatin-specific signature (e.g., SERPINE1, CEACAM1, C1orf116): unaffected
  BTG2 induction, rank in p53-dependent gene signature: top upregulated gene; also recorded: most highly induced gene
HCT116 p53−/− cells
  ferritin level in cell supernatant: large increase
[2]; [5]
  p53 dependence of TRAILR2 regulation: despite p53 status
[2]; drug at IC50, 48 h
  VEGF production/release: downregulated
[2]; drug at IC50, 48 h, vs control
  TRAILR2 level in cell supernatant: increased
[2]; [6]
  ferritin level in cell supernatant: increase

## CN(C)C(=N)N=C(N)N [metformin]
[3]
  reversal of oxaliplatin-induced neuronal damage: reversible

## O=C1[O][Pt]2([NH][C@@H]3CCCC[C@H]3[NH]2)[O]C1=O [oxaliplatin, Oxaliplatin]
[1]
  ATF3 transcript regulation: Upregulation
  FOS transcript regulation: uniquely upregulated
  SAT1 transcript regulation: uniquely upregulated
  SUSD2 transcript regulation: uniquely upregulated
  transcripts of the 5-fluorouracil/CPT-11/oxaliplatin-specific signature (e.g., SERPINE1, CEACAM1, C1orf116): upregulated
  BTG2 induction, rank in p53-dependent gene signature: top upregulated gene; also recorded: most highly induced gene
[4]
  peripheral neuropathy, share of patients: 30-50%
HCT116 cells (wild-type)
  IL-8 level in cell supernatant: did not affect
[3]
  neuronal damage (upregulation of FOS and ATF3): neuronal damage
HCT116 p53−/− cells
  IL-8 level in cell supernatant: induced
[2]
  IL-8 level in cell supernatant: increase
  TRAILR2 level in cell supernatant: down-regulated
  p53 dependence of TRAILR2 regulation: dependent on p53
[2]; drug at IC50, 48 h
  VEGF production/release: downregulated
